Source: US20240122934A1, “COMPOSITIONS AND METHODS OF TREATMENT FOR INHIBITING CAPILLARY TUBE REGRESSION” (University of South Florida, priority 2019, published 2024)
“Also recorded” adds a separate entry of the source.

Columns and labels:
THP-T macrophages = assay: RT-PCR of cytokine mRNA in TLR ligand-treated macrophages; assay type: cell-based, human; conditions: 100 ng/ml, 4 hr
Method: (§1) (A,B) The TLR ligand Pam3CSK4 was added at 100 ng/ml to THP-1 macrophages that were differentiated in two separate ways (THP-1-VT vs. THP-1-T) or to ECs, fibroblasts (Fib), or pericytes (Peri). Conditioned medium was collected after 4 hr and was added at a 1:5 dilution to established EC tube networks vs. control Pam3CSK4 or control RPMI1640 media. Two independent conditioned media batches were obtained for both the THP-1-VT (i.e. VT1, VT2) and THP-1-T (i.e. T1, T2) macrophage cells. IL-la and IL-1β were added separately at 1 ng/ml. After 24 hr, cultures were fixed, stained, photographed (A) and quantitated for EC tube area (B). Bar equals 200 μm. […] The values (±SD) were obtained from analyzed fields (n=15) where total lumen and tube area was measured. Asterisks indicate significance at p<0.05 compared to control. (C) LPS was added at the indicated concentrations (ng/ml) in the presence or absence of recombinant LPS binding protein (LBP) at 1 μg/ml to EC tube networks. EC lumen areas were measured after 24 hr following these additions. (D) THP-T macrophages were treated with control or 100 ng/ml of Pam3CSK4 (Pam) or LPS. After 4 hr, total RNA was obtained, and RT-PCR analysis was performed evaluating the mRNA expression of indicated genes. […] From the real-time videos, EC lumen areas were measured over time (n=6). […]

THP-1 macrophages = assay: TLR ligand activation of cells; conditioned medium tested on EC tube networks; assay type: cell-based, human
Method: as §1

EC tube networks [1] = assay: 3D collagen EC tube regression assay; assay type: cell-based, human; conditions: for EC tube regression (pro-regressive activity): factor added to established 48 hr EC tube networks, 24 hr
Method: (A) EC cultures with tube networks were established for 48 hr followed by the addition of indicated cytokines or thrombin (Thr) for 24 hr. IL-1β and IL-la were added at 1 ng/ml, TNFα at 3.16 ng/ml and thrombin at 1 μg/ml. Bars equal 100 or 200 μm. (B,C,D) EC tube networks were treated with the indicated cytokines and varying concentrations in dose-response analyses and in the presence or absence of thrombin added at 1 μg/ml. After 24 hr, cultures were fixed, stained and quantitated for EC lumen area per field. These curves are from a representative experiment using triplicate wells for each condition. The values (±SD) are derived from analyzed fields (n=15) where total lumen and tube area was measured. Asterisks indicate significance at p<0.05 compared to control and squares indicate significance at p<0.05 compared to the cytokine treatments alone.
ECs (passages 3-6) and pericytes (passages 3-12) were cultured as previously described^49,50. THP-1 cells were cultured in RPMI-1640-20% FCS. THP-1-T macrophages were differentiated for 72 hr. with 50 ng/ml of phorbol ester in RPMI-20% FCS, and then treated for 48 hr. in RPMI-2% FCS prior to adding TLR ligands. THP-1-VT macrophages were induced to differentiate for 72 hr. with 10^-7 M vitamin D3 (Calcitriol) in RPMI-20% FCS, followed by 48 hr. with phorbol ester in RPMI-2% FCS prior to adding TLR ligands.
(§2) ECs or ECs with pericytes were suspended in 3D collagen matrices and incubated at 37° C. in serum-free defined media as described^9,50,51. Recombinant factors or THP-1 conditioned media were added at the indicated doses to existing 48 or 72 hr. cultures with EC only or EC-pericyte tube networks, respectively. After 24 or 48 hr. for EC only or EC-pericyte tubes, respectively, cultures were fixed in 3% glutaraldehyde or 3% paraformaldehyde. EC tube areas were traced and quantitated as described. In some cases, neutralizing antibodies were added (10 μg/ml). For signaling experiments, lysates were prepared from control vs. regressing 3D cultures at different time points.

[2] = test system: Lymphatic EC tube networks; assay: lymphatic EC tube network regression; assay type: cell-based; conditions: cytokines 10 ng/ml, thrombin 1 μg/ml, 24 hr
Method: Lymphatic EC tube networks were established for 48 hr and at that time, the indicated pro-inflammatory mediators were added. IL-10 and TNFα were added at 10 ng/ml, while thrombin was added at 1 μg/ml. (A) After 24 hr, cultures were fixed, stained with toluidine blue and photographed. (B) The cultures in (A) were quantitated for EC tube area. Asterisks indicate significance at p<0.01 compared to control.

[3] = test system: EC-pericyte tube networks; assay: EC-pericyte co-culture regression assay; assay type: cell-based, human; conditions: added to 72 hr co-cultures
Method: (A) EC-pericyte (GFP-labeled) co-cultures were established and allowed to form for 72 hr and at this time, the combination of IL-1β (10 ng/ml), TNFα (10 ng/ml) and thrombin (11 μg/ml) were added in combination compared to control and real-time movies were performed. Light and fluorescent image overlays over time are shown in representative fields. Arrowheads indicate clusters of pericytes that accumulate together during regression responses in response to these three factors in combination. After 48 hr, fixed cultures were stained for CD31 to detect ECs and fluorescence image overlays were performed. (B) The same set up was established as in A, except that each individual factor and combination of factors were added. After 48 hr, the cultures were fixed and stained for CD31. Confocal images were obtained, and fluorescence overlay images are shown.
(A) EC-pericyte co-cultures were established for 72 hr, and then were left untreated or with IL-1β (10 ng/ml), TNFα (10 ng/ml), and thrombin (11 μg/ml) in combination. After 48 hr, cultures were fixed and stained with CD31, confocal microscopy and 3D reconstruction of the images allowed for an upright and side view. (B) EC-pericyte tube networks were treated with the indicated single and combined factors and after fixation, EC tube area was quantitated. […] The values (±SD) were obtained from analyzed fields (n=15) where total lumen and tube area was measured. Asterisks indicate increased significance at p<0.05 compared to control, the squares indicate decreased significance at p<0.05 relative to the single factor conditions and the triangle indicates significance at p<0.05 relative to the double factor conditions. (C) EC-pericyte tube networks were treated with indicated combinations of factors. After 48 hr, total GFP fluorescence per well was quantitated as a measure of pericyte number since they are GFP-labeled. […] Asterisks indicate significance at p<0.05 compared to control.
as §2

EC tube networks [4] = assay: Western blots of lysates from regressing 3D EC cultures (regression signaling signature); assay type: cell-based, human; conditions: 24-hr. time course, compared to control EC tubes
Method: (A,B) ECs tube networks were treated with the indicated factors vs. control and at different time points, lysates were prepared from the 3D cultures. Western blots were performed using the different indicated antibodies. (C) Schematic illustrating findings that define a capillary regression signaling signature.
THP-T macrophages were treated with Pam3CSK4 (Pam) or LPS and conditioned medium was added at a 1:20 or 1:50 dilution, respectively, to EC tube networks. Control and IL10-treated cultures were compared with the conditioned medium treatments within the same experiment. At the indicated time points, lysates were obtained, and Western blots were performed with the indicated antibodies.
as §2

EC sprouts and tubes = assay: angiogenic sprouting assay (ECs invading from monolayer surface); assay type: cell-based, human; conditions: angiogenic sprouting system
Method: (A) ECs were seeded onto a monolayer surface and then allowed to invade into the gels to form tubes over a 48 hr period. At this time, cultures were then treated with IL-1β or TNFα and in the absence or presence of FIST. Cultures were fixed after 24 hr, stained and photographed to visualize the monolayer surface and the underlying sprouts and tubes. (B) Cultures were established just like in A and then the Pak2 inhibitor, Frax486 (2.5 μM) or the microtubule depolymerizing agent, vinblastine (100 nM), were added to media in the presence or absence of FIST. Cultures were fixed after 24 hr, stained and photographed. Bar equals 200 μm.
Studies to define the factors and signals that promote endothelial cell (EC) lumen and tube formation, EC sprouting and EC-pericyte tube co-assembly have been performed under serum-free defined conditions so that the functional role of individual molecules that regulate these processes can be assessed. Disclosed herein, the factors that control capillary regression are defined. Capillary regression is a process that has been largely neglected despite the likelihood that it may present a fundamental pathogenic feature of major human diseases where capillary disassembly and regression are known to occur (i.e. hypertension, diabetes, ischemic disease in many tissues, neurodegenerative diseases, and malignant cancer). […] EC tube networks were allowed to form for 48 hr. (vasculogenesis type of assay) and then added these agents in dose-response experiments, showing that they potently induce EC tube regression (at low ng levels) (FIG. 1). Real-time movies were performed to visualize these pro-regressive activities. This experimental approach has utilized assays that mimic vasculogenesis or angiogenic sprouting and these factors induce regression equally well in both assay systems. […] These studies have been performed primarily in 3D collagen matrices, but the same result is also observed in 3D fibrin matrices.

hyaloid vessels = assay: hyaloid vascular regression in mice; assay type: in vivo; conditions: intravitreal injection, vessel number quantitated at P8
Method: (A) Intravitreal injection of blocking antibodies directed to both IL-10 and TNFα vs control IgG was performed at postnatal day (P) 6, and hyaloid vessel number was quantitated at P8. (B) Intravitreal injection of IL-10 was performed at P5 vs vehicle control, and hyaloid vessel number was quantitated at P8. (C and D) Hyaloid vessels at P2 and P8 were immunostained for phospho-MLC2 (p-MLC; red) and CD31-positive endothelial cells (ECs; green), and double-positive cells were imaged and quantitated over time. Scale bar=100 μm. E and F, Analysis of ICAM-1 expression at the mRNA (E) and protein level (F) during different stages of hyaloid vessel regression. CD indicates cluster of differentiation; DAPI, 4′6-diamidino-2-phenylindole; ICAM, intercellular adhesion molecule; and MLC, myosin light chain.
In some embodiments, physiologic capillary regression can be modeled in a mouse by examining the postnatal regression of the eye hyaloid vasculature. In some embodiments, this vascular regressive response can depend on the presence of adjacent macrophages which decorate this developmental vascular bed. […] In some embodiments, EC capillary regression during hyaloid regression can include increased expression of ICAM-1 (at the mRNA and protein level) and increased presence of phospho-MLC2 in regressing hyaloid ECs.

## Pam3CSK4
THP-T macrophages
  mRNA expression of inflammatory cytokines: marked upregulation of TNFα, IL-1β, IL-la, IL-6 and IL-10 (i.e. an anti-inflammatory cytokine) as well as tissue factor (i.e. F3)
THP-1 macrophages; ECs, pericytes and fibroblasts
  induction of pro-regressive activities in conditioned media of other cell types: failed to induce pro-regressive activities in their conditioned media
THP-1 macrophages; TLR ligand 100 ng/ml added to macrophages, medium collected after 4 hr
  induction of pro-regressive activities in macrophage conditioned medium: highly potent pro-regressive activities in the macrophage conditioned medium
EC tube networks [1]
  EC tube regression (pro-regressive activity): Neither Pam3CSK4 or LPS by themselves (with and without the presence of LPS-binding protein, LBP) had any ability to directly cause EC tube regression

## TNFα
[2]
  lymphatic tube network regression: regress
[3]
  EC tube regression in EC-pericyte co-cultures: marked tube regression in response to each factor individually and, also in combination
  pericyte numbers: an increase in pericyte numbers
EC tube networks [4]
  ICAM-1 and VCAM-1 levels: Strong upregulation of ICAM-1 and VCAM-1
  phospho-Pak2, phospho-cofilin, acetylated tubulin, procaspase3 levels: decreased levels of phospho-Pak2, phospho-cofilin, acetylated tubulin and procaspase3
  phospho-p38, phospho-JNK, phospho-MLC2 levels: increased levels of phospho-p38, phospho-JNK, and phospho-MLC2
EC tube networks [1]; 40 and 10 ng/ml, 48 hr EC tube networks
  EC tube regression in screen of growth factors and cytokines: more potent pro-regressive factors than the other factors described herein
EC tube networks [1]
  EC tube regression (pro-regressive activity): directly cause capillary tube collapse and regression
EC sprouts and tubes
  degeneration of sprouts and EC monolayer: induce degeneration of the invading sprouts, but also the EC monolayer surface where the sprouts originated

## thrombin
[2]
  lymphatic tube network regression: regress
[3]
  EC tube regression in EC-pericyte co-cultures: marked tube regression in response to each factor individually and, also in combination
  pericyte numbers: an increase in pericyte numbers
EC tube networks [1]
  EC tube regression (pro-regressive activity): directly cause capillary tube collapse and regression; also recorded: less effective

B1: IL-10: anti-inflammatory cytokine (protein, UniProt P22301 19-178, looked up)
Interleukin-10: SPGQGTQSENSCTHFPGNLPNMLRDLRDAFSRVKTFFQMKDQLDNLLLKESLLEDFKGYLGCQALSEMIQFYLEEVMPQAENQDPDIKAHVNSLGENLKTLRLRLRRCHRFLPCENKSKAVEQVKNAFNKLQEKGIYKAMSEFDIFINYIEAYMTMKIRN
Hyaloid vessels
  hyaloid vessel regression: inhibited hyaloid regression
